[UNA] = unlocked nucleic acid; m = 2'-O-methyl; r = 2'-OH (RNA)
Assays:
HBV genome = test: siRNA IC50 (Table A); set-up: species or system Hepatitis B virus
[1] = tested on: HBV cccDNA-dependent precore RNA in DESHAe82 cells; test: DESHAe82 / DE19 cell culture system, cccDNA-derived precore RNA by qRT-PCR, MacSynergy II; type: cell-based, Hepatitis B virus; conditions: ETV μM: 0.01, 0.0032, 0.001, 0.0003, 0.0001, 3E−05, 0
Method: In vitro combination studies were conducted using a modification of the assay system described in Cai et al (Antimicrobial Agents Chemotherapy, 2012. Vol 56(8):4277-88). A previously developed HepDE19 cell culture system (Guo et al. J. Virology (2007) 81(22): 12472-12484) supports HBV DNA replication and cccDNA formation in a tetracycline (Tet)-regulated manner, and produces a detectable reporter molecule which is dependent upon the production and maintenance of cccDNA.
In the HepDE19 cell culture system, the reporters are the precore RNA and its cognate protein product, the secreted HBV “e antigen” (HBeAg). In HepDE19 cells, precore RNA and HBeAg are only produced from the cccDNA circular template, because the ORF of HBeAg and its 5′ RNA leader are separated between the opposite ends of the integrated viral genome, and only become contiguous with the formation of cccDNA. Although an assay based on the HepDE19 cell culture system is effective for determining activity, the results of high throughput screening may be complicated because the HBeAg ELISA cross reacts with a viral HBeAg homologue, which is the core antigen (HBcAg) expressed largely in a cccDNA-independent fashion in HepDE19 cells. To overcome this complication, an alternative cell culture system (designated herein as DESHAe82 cell culture system and described in PCT/EP/2015/06838) has been developed which includes an in-frame HA epitope tag in the N-terminal coding sequence of HBeAg in the transgene of DESHAe82 cells, without disrupting any cis-element critical for HBV replication, cccDNA transcription, and HBeAg secretion.
A chemiluminescence ELISA assay (CLIA) for the detection of HA-tagged HBeAg with HA antibody serving as capture antibody and […] has been developed, eliminating the contaminating signal from HBcAg. […] In addition, a protocol for quantitative reverse transcription and polymerase chain reaction (qRT-PCR) that is specific for detection of precore RNA in either DE19 or DESHAe82 cells was developed and is also used for the detection of the cccDNA-dependent mRNA (precore RNA) that is translated to produce HBeAg or HA-HBeAg.
To test the compound combinations, DESHAe82 or DE19 cells (as indicated in examples) were plated in 96 well tissue-culture treated microtiter plates in DMEM/F12 medium supplemented with 10% fetal bovine serum+1% penicillin-streptomycin with Tet, and incubated in a humidified incubator at 37° C. and 5% CO2 overnight. […] The two inhibitors were tested both singly as well as in combinations in a checkerboard fashion such that each test concentration of inhibitor A was combined with each test concentration of inhibitor B to determine their combination effects on inhibition of cccDNA formation and expression. Untreated negative control samples (0.5% DMSO or media only) were included on each plate in multiple wells. Following a 9 day-incubation, media was removed and cells were subjected to RNA extraction to measure the cccDNA-dependent precore mRNA level. Total cellular RNAs were extracted using a 96-well format total RNA isolation kit ([…]-NAGEL, Cat. 740466.4) by following the instruction of manufacturer (vacuum manifold processing, two more extra washes of Buffer RA4). RNA samples were eluted in RNAase-free water. Quantitative real-time RT-PCR was performed with a Roche LightCycler480 and RNA Master Hydrolysis probe (Catalog number 04991885001, Roche) using primers and conditions for specific detection of cccDNA-dependent precore RNA. GAPDH mRNA levels were also detected by standard methods and used to normalize the precore RNA levels.

| Compound | IC50 (HBV genome) | other results |
| --- | --- | --- |
| 15m: siRNA duplex SEQ ID NO: 29 and 30 targeting the HBV genome (chain 1 CUGGCUCAGUUUACUAGUGUU; chain 2 CACUAGUAAACUGAGCCAGUU; chain 1: sugars from the 5' end [UNA]mmrrmrrrrrmrrrrrrr[UNA][UNA], backbone not given here; chain 2: sugars from the 5' end r14 m1 r4 [UNA]2, backbone not given here) [Compound 15m] | 0.17 nM |  |
| 4m: siRNA duplex SEQ ID NO: 7 and 8 targeting the HBV genome (chain 1 GCUCAGUUUACUAGUGCCAUU; chain 2 UGGCACUAGUAAACUGAGCUU; chain 1: sugars from the 5' end [UNA]rmmrmrrrrrrrrrrrmr[UNA][UNA], backbone not given here; chain 2: sugars from the 5' end rrrrrrrrrmrrrrrrrmr[UNA][UNA], backbone not given here) [Compound 4m] | 0.31 nM |  |
| 8m: siRNA duplex SEQ ID NO: 15 and 16 targeting the HBV genome (chain 1 GCUCAGUUUACUAGUGCCAUU; chain 2 UGGCACUAGUAAACUGAGCUU; chain 1: sugars from the 5' end [UNA]rmrrmrrrrrmrmrrrrr[UNA][UNA], backbone not given here; chain 2: sugars from the 5' end r14 m1 r4 [UNA]2, backbone not given here) [Compound 8m] | 0.24 nM |  |
| 9m: siRNA duplex SEQ ID NO: 17 and 18 targeting the HBV genome (chain 1 AGGUAUGUUGCCCGUUUGUUU; chain 2 ACAAACGGGCAACAUACCUUU; chain 1: sugars from the 5' end [UNA]mrmrrrmrrrrrmrmrrr[UNA][UNA], backbone not given here; chain 2: sugars from the 5' end rrrrrrmrrrrrrrmrrrm[UNA][UNA], backbone not given here) [Compound 9m] | 0.13 nM |  |
| 7m: siRNA duplex SEQ ID NO: 13 and 14 targeting the HBV genome (chain 1 CCGUGUGCACUUCGCUUCAUU; chain 2 UGAAGCGAAGUGCACACGGUU; chain 1: sugars from the 5' end [UNA]rrrmmrrrrrmrrrmrrr[UNA][UNA], backbone not given here; chain 2: sugars from the 5' end rrrrrrrrrrrmrrrrrmr[UNA][UNA], backbone not given here) [Compound 7m] | 0.06 nM |  |
| 14m: siRNA duplex SEQ ID NO: 27 and 28 targeting the HBV genome (chain 1 GCUCAGUUUACUAGUGCCAUU; chain 2 UGGCACUAGUAAACUGAGCUU; chain 1: sugars from the 5' end [UNA]rmrrmrrrrrmrmrrrrrr[UNA], backbone not given here; chain 2: sugars from the 5' end r14 m1 r6, backbone not given here) [Compound 14m] | 0.16 nM |  |
| 2m: siRNA duplex SEQ ID NO: 3 and 4 targeting the HBV genome (chain 1 GCUCAGUUUACUAGUGCCAUU; chain 2 UGGCACUAGUAAACUGAGCUU; chain 1: sugars from the 5' end [UNA]rmmrmrrrrrrrrrrrmrr[UNA], backbone not given here; chain 2: sugars from the 5' end r9 m1 r7 m1 r3, backbone not given here) [Compound 2m] | 0.37 nM |  |
| 11m: siRNA duplex SEQ ID NO: 21 and 22 targeting the HBV genome (chain 1 GCCGAUCCAUACUGCGGAAUU; chain 2 UUCCGCAGUAUGGAUCGGCUU; chain 1: sugars from the 5' end [UNA]rrmrmrrrrrrmmrmmrrr[UNA], backbone not given here; chain 2: sugars from the 5' end rrrrrrrmrrrrmrrrrmrrr, backbone not given here) [Compound 11m] | 0.31 nM |  |
| 1m: siRNA duplex SEQ ID NO: 1 and 2 targeting the HBV genome (chain 1 AGGUAUGUUGCCCGUUUGUUU; chain 2 ACAAACGGGCAACAUACCUUU; chain 1: sugars from the 5' end [UNA]mrmrrmmrrrrrmrmrrr[UNA][UNA], backbone not given here; chain 2: sugars from the 5' end rrrrrrmrrrrrrrmrrrr[UNA][UNA], backbone not given here) [Compound 1m] | 1.43 nM |  |
| 3m: siRNA duplex SEQ ID NO: 5 and 6 targeting the HBV genome (chain 1 CCGUGUGCACUUCGCUUCAUU; chain 2 UGAAGCGAAGUGCACACGGUU; chain 1: sugars from the 5' end [UNA]rrrmmrrrrrmrrrmmrr[UNA][UNA], backbone not given here; chain 2: sugars from the 5' end rrrrrrrrrrrmrrrrrmr[UNA][UNA], backbone not given here) [Compound 3m] | 0.06 nM |  |
| C[C@@H](NS(=O)(=O)c1ccc(F)c(C(=O)Nc2ccc(F)c(F)c2)c1)c1cncs1 [Compound 4] |  | Average percent inhibition versus negative control (precore RNA) ([1]; Compound 4 0.032 μM): −49.48%; Average percent inhibition versus negative control (precore RNA) ([1]; Compound 4 0.100 μM): 66.78%; Average percent inhibition versus negative control (precore RNA) ([1]; Compound 4 0.317 μM): 94.67%; Average percent inhibition versus negative control (precore RNA) ([1]; Compound 4 1.001 μM): 93.92%; Average percent inhibition versus negative control (precore RNA) ([1]; Compound 4 3.165 μM): 97.88%; Average percent inhibition versus negative control (precore RNA) ([1]; Compound 4 10 μM): 97.53% |

Source: patent US20220265817A1, “THERAPEUTIC COMPOSITIONS AND METHODS FOR TREATING HEPATITIS B” (priority 2017, published 2022)
